From PubChem BioAssay AID342 (DTP/NCI, 2004)
“And” between values parts separate entries of the source, which are not always exact repeats. Equal values may be shown once.

Tested on: Swiss mice, Sarcoma 180 sc, mean tumor weight T/C
Assay: NCI In Vivo Anticancer Drug Screen. Data for tumor model Sarcoma 180 (subcutaneous) in Swiss mice
Settings: endpoint: mean tumor weight, higher = larger tumour
Description: The antitumor activity of compounds was measured in mice bearing transplantable tumors. Survival or tumor size were measured and the results are expressed as the measurement made in the treated group (T) divided by the measurement made in the vehicle treated control group (C). The tumor model used in this assay is Sarcoma 180 (subcutaneous) in Swiss mice

[1] = dose: 19.0 mg/kg/injection, schedule: Q01DX007 (ip), vehicle: carboxymethylcellulose (CMC)
[2] = dose: 60.0 mg/kg/injection, schedule: Q01DX007 (ip), vehicle: other
[3] = dose: 37.5 mg/kg/injection, schedule: Q01DX007 (ip), vehicle: carboxymethylcellulose (CMC)
[4] = dose: 75.0 mg/kg/injection, schedule: Q01DX007 (ip), vehicle: carboxymethylcellulose (CMC)

Question: What does the source list for `S=c1nc[nH]c2nc[nH]c12`?
Answer: T/C (dose: 3.25 mg/kg/injection, schedule: Q#A X014 (ip), vehicle: carboxymethylcellulose (CMC)): 62 % of control; T/C (dose: 3.62 mg/kg/injection, schedule: Q#A X014 (ip), vehicle: carboxymethylcellulose (CMC)): 83 % of control; T/C (dose: 6.5 mg/kg/injection, schedule: Q#A X014 (ip), vehicle: carboxymethylcellulose (CMC)): 61 % of control; T/C (dose: 7.25 mg/kg/injection, schedule: Q#A X014 (ip), vehicle: carboxymethylcellulose (CMC)): 56 % of control; T/C (dose: 7.5 mg/kg/injection, schedule: Q01DX007 (ip), vehicle: other): 102 % of control; T/C (dose: 10.4 mg/kg/injection, schedule: Q01DX007 (ip), vehicle: carboxymethylcellulose (CMC)): 51 % of control; T/C (dose: 13.0 mg/kg/injection, schedule: Q01DX007 (ip), vehicle: carboxymethylcellulose (CMC)): 66 % of control; T/C (dose: 13.0 mg/kg/injection, schedule: Q#A X014 (ip), vehicle: carboxymethylcellulose (CMC)): 28 % of control; T/C (dose: 14.5 mg/kg/injection, schedule: Q01DX007 (ip), vehicle: carboxymethylcellulose (CMC)): 73 % of control and 83 % of control; T/C (dose: 14.5 mg/kg/injection, schedule: Q#A X014 (ip), vehicle: carboxymethylcellulose (CMC)): 48 % of control; T/C (dose: 15.0 mg/kg/injection, schedule: Q01DX007 (ip), vehicle: other): 101 % of control; T/C (dose: 15.0 mg/kg/injection, schedule: Q#A X014 (ip), vehicle: methylcellulose (MC)): 60 % of control; T/C (dose: 17.3 mg/kg/injection, schedule: Q01DX007 (ip), vehicle: carboxymethylcellulose (CMC)): 51 % of control; T/C [1]: 72 % of control; T/C (dose: 23.2 mg/kg/injection, schedule: Q01DX007 (ip), vehicle: carboxymethylcellulose (CMC)): 49 % of control; T/C (dose: 25.0 mg/kg/injection, schedule: Q#A X014 (ip), vehicle: methylcellulose (MC)): 55 % of control; T/C (dose: 26.0 mg/kg/injection, schedule: Q01DX007 (ip), vehicle: carboxymethylcellulose (CMC)): 36 % of control; T/C (dose: 26.0 mg/kg/injection, schedule: Q#A X014 (ip), vehicle: carboxymethylcellulose (CMC)): 32 % of control; T/C (dose: 29.0 mg/kg/injection, schedule: Q#A X014 (ip), vehicle: carboxymethylcellulose (CMC)): 20 % of control; T/C (dose: 30.0 mg/kg/injection, schedule: Q01DX007 (ip), vehicle: other): 78 % of control; T/C (dose: 37.5 mg/kg/injection, schedule: Q#A X014 (ip), vehicle: methylcellulose (MC)): 34 % of control; T/C (dose: 38.6 mg/kg/injection, schedule: Q01DX007 (ip), vehicle: carboxymethylcellulose (CMC)): 36 % of control; T/C (dose: 43.5 mg/kg/injection, schedule: Q01DX007 (ip), vehicle: carboxymethylcellulose (CMC)): 27 % of control and 47 % of control; T/C (dose: 44.0 mg/kg/injection, schedule: Q01DX007 (ip), vehicle: carboxymethylcellulose (CMC)): 49 % of control; T/C (dose: 50.0 mg/kg/injection, schedule: Q#A X014 (ip), vehicle: methylcellulose (MC)): 14 % of control; T/C (dose: 58.0 mg/kg/injection, schedule: Q01DX007 (ip), vehicle: carboxymethylcellulose (CMC)): 14 % of control and 21 % of control and 28 % of control; T/C [2]: 33 % of control and 47 % of control; T/C (dose: 66.0 mg/kg/injection, schedule: Q01DX007 (ip), vehicle: carboxymethylcellulose (CMC)): 34 % of control; T/C (dose: 100.0 mg/kg/injection, schedule: Q01DX007 (ip), vehicle: carboxymethylcellulose (CMC)): 24 % of control

Question: Which T/C (dose: 12.5 mg/kg/injection, schedule: Q01DX007 (ip), vehicle: water) does the source give for `CN(C)c1ccc(/C=C\c2ccnc3ccccc23)cc1` here?
Answer: 123 % of control

Question: What about the T/C (dose: 16.0 mg/kg/injection, schedule: Q01DX007 (ip), vehicle: methylcellulose (MC)) of the same molecule?
Answer: 118 % of control

Question: What about the T/C (dose: 24.0 mg/kg/injection, schedule: Q01DX007 (ip), vehicle: methylcellulose (MC)) of the same molecule?
Answer: 80 % of control

Question: What about the T/C (dose: 25.0 mg/kg/injection, schedule: Q01DX007 (ip), vehicle: water) of the same molecule?
Answer: 114 % of control

Question: And the T/C (dose: 36.0 mg/kg/injection, schedule: Q01DX007 (ip), vehicle: methylcellulose (MC))?
Answer: 66 % of control

Question: What about the T/C (dose: 50.0 mg/kg/injection, schedule: Q01DX007 (ip), vehicle: water) of the same molecule?
Answer: 80 % of control

Question: `CCCCCCCCCCCCCCCCC(C(=O)O)C(O)(CC(=O)O)C(=O)O` (stereo unspecified) was tested. Which T/C [1] did it give?
Answer: 81 % of control

Question: What about the T/C [3] of the same molecule?
Answer: 104 % of control

Question: And the T/C [4]?
Answer: 91 % of control

Question: How did the T/C (dose: 0.11 mg/kg/injection, schedule: Q01DX007 (sc), vehicle: steriod suspending solution) turn out when `CC(=O)[C@@]1(O)[C@H](C)C[C@H]2[C@@H]3C=C(C)C4=Cc5c(cnn5-c5ccccc5)C[C@]4(C)[C@H]3[C@@H](O)C[C@@]21C` was run?
Answer: 95 % of control

Question: And the T/C (dose: 0.17 mg/kg/injection, schedule: Q01DX007 (sc), vehicle: steriod suspending solution)?
Answer: 84 % of control

Question: What about the T/C (dose: 0.75 mg/kg/injection, schedule: Q01DX007 (sc), vehicle: steriod suspending solution) of the same molecule?
Answer: 22 % of control and 42 % of control

Question: And the T/C (dose: 1.0 mg/kg/injection, schedule: Q01DX007 (sc), vehicle: steriod suspending solution)?
Answer: 21 % of control

Question: And the T/C (dose: 2.0 mg/kg/injection, schedule: Q01DX007 (sc), vehicle: steriod suspending solution)?
Answer: 23 % of control

Question: What about the T/C (dose: 4.0 mg/kg/injection, schedule: Q01DX007 (sc), vehicle: steriod suspending solution) of the same molecule?
Answer: 9 % of control

Question: How did the T/C [2] turn out when `O=C1C=CC(=O)N1c1ccc2c(c1)oc(=O)c1ccccc12` was run?
Answer: 76 % of control

Question: What about the T/C (dose: 95.0 mg/kg/injection, schedule: Q01DX007 (ip), vehicle: other) of the same molecule?
Answer: 58 % of control

Question: And the T/C (dose: 99.0 mg/kg/injection, schedule: Q01DX007 (ip), vehicle: steriod suspending solution)?
Answer: 51 % of control

Question: What about the T/C (dose: 148.0 mg/kg/injection, schedule: Q01DX007 (ip), vehicle: other) of the same molecule?
Answer: 42 % of control

Question: What about the T/C (dose: 148.0 mg/kg/injection, schedule: Q01DX007 (ip), vehicle: steriod suspending solution) of the same molecule?
Answer: 81 % of control

Question: What about the T/C (dose: 222.0 mg/kg/injection, schedule: Q01DX007 (ip), vehicle: other) of the same molecule?
Answer: 36 % of control and 44 % of control

Question: And the T/C (dose: 222.0 mg/kg/injection, schedule: Q01DX007 (ip), vehicle: steriod suspending solution)?
Answer: 69 % of control

Question: What about the T/C (dose: 333.0 mg/kg/injection, schedule: Q01DX007 (ip), vehicle: other) of the same molecule?
Answer: 49 % of control

Question: What about the T/C (dose: 500.0 mg/kg/injection, schedule: Q01DX007 (ip), vehicle: other) of the same molecule?
Answer: 29 % of control

Question: Which results are given for `O=c1[nH]c2cc(Cl)c(Cl)cc2o1`?
Answer: T/C [1]: 83 % of control; T/C [3]: 90 % of control; T/C [4]: 94 % of control; T/C (dose: 150.0 mg/kg/injection, schedule: Q01DX007 (ip), vehicle: carboxymethylcellulose (CMC)): 81 % of control

Question: With `OC(CBr)C(O)C(O)C(O)CBr` (stereo unspecified) as the molecule, how does the T/C (dose: 25.0 mg/kg/injection, schedule: Q01DX007 (ip), vehicle: saline) read?
Answer: 106 % of control

Question: And the T/C (dose: 50.0 mg/kg/injection, schedule: Q01DX007 (ip), vehicle: saline)?
Answer: 95 % of control and 117 % of control

Question: What about the T/C (dose: 100.0 mg/kg/injection, schedule: Q01DX007 (ip), vehicle: saline) of the same molecule?
Answer: 104 % of control and 107 % of control

Question: What about the T/C (dose: 400.0 mg/kg/injection, schedule: Q01DX007 (ip), vehicle: saline) of the same molecule?
Answer: 88 % of control

Question: Which T/C (dose: 25.0 mg/kg/injection, schedule: Q01DX007 (ip), vehicle: carboxymethylcellulose (CMC)) does the source give for `CC(C)CN(C)/N=N/c1nc[nH]c1C(N)=O` here?
Answer: 92 % of control

Question: What about the T/C (dose: 50.0 mg/kg/injection, schedule: Q01DX007 (ip), vehicle: carboxymethylcellulose (CMC)) of the same molecule?
Answer: 41 % of control

Question: What does the source list for `CC(=O)OCC1OC(n2cnc3c(=S)nc[nH]c32)C(OC(C)=O)C1OC(C)=O` (stereo unspecified)?
Answer: T/C (dose: 20.0 mg/kg/injection, schedule: Q01DX007 (ip), vehicle: carboxymethylcellulose (CMC)): 81 % of control; T/C (dose: 30.0 mg/kg/injection, schedule: Q01DX007 (ip), vehicle: carboxymethylcellulose (CMC)): 75 % of control; T/C (dose: 45.0 mg/kg/injection, schedule: Q01DX007 (ip), vehicle: carboxymethylcellulose (CMC)): 54 % of control

Question: Which T/C (dose: 7.8 mg/kg/injection, schedule: Q01DX007 (ip), vehicle: saline) does the source give for `CC(C)=CCC/C(C)=C/CO` here?
Answer: 83 % of control

Question: What about the T/C (dose: 15.6 mg/kg/injection, schedule: Q01DX007 (ip), vehicle: saline) of the same molecule?
Answer: 83 % of control

Question: What about the T/C (dose: 31.3 mg/kg/injection, schedule: Q01DX007 (ip), vehicle: saline) of the same molecule?
Answer: 110 % of control

Question: What about the T/C (dose: 62.5 mg/kg/injection, schedule: Q01DX007 (ip), vehicle: saline) of the same molecule?
Answer: 90 % of control

Question: Which results are given for `[N-]=[N+]=[N-]`?
Answer: T/C (dose: 1.5 mg/kg/injection, schedule: Q01DX007 (ip), vehicle: carboxymethylcellulose (CMC)): 88 % of control; T/C (dose: 3.0 mg/kg/injection, schedule: Q01DX007 (ip), vehicle: carboxymethylcellulose (CMC)): 61 % of control; T/C (dose: 6.0 mg/kg/injection, schedule: Q01DX007 (ip), vehicle: carboxymethylcellulose (CMC)): 76 % of control; T/C (dose: 12.0 mg/kg/injection, schedule: Q01DX007 (ip), vehicle: carboxymethylcellulose (CMC)): 69 % of control

Question: Which T/C (dose: 2.5 mg/kg/injection, schedule: Q01DX007 (sc), vehicle: steriod suspending solution) does the source give for `C[C@]12CCc3c(ccc4cc(O)ccc34)[C@@H]1C[C@H](O)[C@@H]2O` here?
Answer: 90 % of control

Question: What about the T/C (dose: 10.0 mg/kg/injection, schedule: Q01DX007 (sc), vehicle: steriod suspending solution) of the same molecule?
Answer: 95 % of control
